Values belong to the molecule of their own block, whether it stands above or below them.
Columns and labels:
[1] = system: non-small cell lung cancer cell line H460; test: In vitro human cancer cell line cytotoxicity (proliferation) assay in H460, CellTiter-Glo, 72 hours; assay type: cell-based; conditions: DMSO condition (no AKR1C3 inhibitor), read-out: CTG H460: Avg IC50 (nM) [Assay Condition: DMSO]
How it was run: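 H460 cells were seeded at 3×10^3 per well and grown 24 h at 37 °C, 5% CO2 before compound addition from 10 mM DMSO stocks. After 72 h further incubation, viability was measured by CellTiter-Glo, and IC50 values in nM were derived from the proliferation data.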

[2] = system: non-small cell lung cancer cell line H460; test: H460 proliferation assay in the presence of 3 uM ASP9521 (AKR1C3 specific inhibitor); assay type: cell-based, human; conditions: H460 cells, CellTiter-Glo, 72 hours, in the presence of 3 uM ASP9521 added 4 hours prior to compounds; read-out: CTG H460: Avg IC50 (nM) [Assay Condition: ASP9521]
How it was run: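 H460 cells pre-incubated 24 h, then exposed to compounds for 72 h at 37 °C, 5% CO2. Viability read by CellTiter-Glo. ASP9521 (3 uM, AKR1C3 inhibitor) added 4 h before compounds.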

[3] = Homo sapiens, NCI-H460, H460 cells
[4] = Homo sapiens, NCI-H460, 72 h, H460 cells

IC50 [2]: 1410 nM
SMILES: Cn1cnc2cc(Oc3c([N+](=O)[O-])ccc4c3CCC4OP(=O)(N3CC3)N3CC3)ccc21 (centres unmarked) [Example 390]
IC50 [1, 3]: < 10 nM

SMILES: Cc1cc2cc(Oc3c([N+](=O)[O-])ccc4c3CC[C@H]4OP(=O)(N3CC3)N3CC3)ccc2n1C [Example 391]
IC50 [1, 4]: < 10 nM | IC50 [2]: 1810 nM

SMILES: Cc1nc2cc(Oc3c([N+](=O)[O-])ccc4c3CC[C@H]4OP(=O)(N3CC3)N3CC3)ccc2n1C [Example 392]
IC50 [1, 4]: < 10 nM | IC50 [2]: 785 nM

SMILES: O=[N+]([O-])c1ccc2c(c1Oc1ccc3c(c1)OCO3)CC[C@@H]2OP(=O)(N1CC1)N1CC1 [Example 394]
IC50 [1, 4]: < 10 nM | IC50 [2]: 388 nM

IC50 [2]: 2480 nM
SMILES: Cn1cnc2cc(Oc3c([N+](=O)[O-])ccc4c3CC[C@@H]4OP(=O)(N3CC3)N3CC3)ccc21 [Example 396]
IC50 [1, 3]: 10 to 50 nM

IC50 [2]: 956 nM
SMILES: Cn1cnc2cc(Oc3c([N+](=O)[O-])ccc4c3CC[C@H]4OP(=O)(N3CC3)N3CC3)ccc21 [Example 397]
IC50 [1, 3]: < 10 nM

SMILES: Cn1cc2ccc(Oc3c([N+](=O)[O-])ccc4c3CC[C@@H]4OP(=O)(N3CC3)N3CC3)cc2n1 [Example 399]
IC50 ([1]; H460 cells): < 10 nM | IC50 [2]: 1110 nM

SMILES: O=[N+]([O-])c1ccc2c(c1Oc1ccc3ncccc3c1)CC[C@@H]2OP(=O)(N1CC1)N1CC1 [Example 400]
IC50 [1, 4]: < 10 nM | IC50 [2]: 452 nM

SMILES: Cn1ccc2cc(F)c(Oc3c([N+](=O)[O-])ccc4c3CCC4OP(=O)(N3CC3)N3CC3)cc21 (centres unmarked) [Example 402]
IC50 ([1]; H460 cells): < 10 nM | IC50 [2]: 712 nM

SMILES: O=C1CCCCN1c1cccc(Oc2c([N+](=O)[O-])ccc3c2CCC3OP(=O)(N2CC2)N2CC2)c1 (centres unmarked) [Example 410]
IC50 ([1]; H460 cells): 10 to 50 nM | IC50 [2]: 4660 nM

SMILES: CC1(C)CN(c2cccc(Oc3c([N+](=O)[O-])ccc4c3CCC4OP(=O)(N3CC3)N3CC3)c2)C(=O)O1 (centres unmarked) [Example 417]
IC50 ([1]; H460 cells): < 10 nM | IC50 [2]: 712 nM

SMILES: O=[N+]([O-])c1ccc2c(c1Oc1ccc(F)c(-n3cc(F)cn3)c1)CC[C@H]2OP(=O)(N1CC1)N1CC1 [Example 420]
IC50 [1, 4]: < 10 nM | IC50 [2]: 675 nM

SMILES: O=[N+]([O-])c1ccc2c(c1Oc1ccc(F)c(-n3cc(F)cn3)c1)CC[C@@H]2OP(=O)(N1CC1)N1CC1 [Example 421]
IC50 [1, 4]: < 10 nM | IC50 [2]: 1400 nM

SMILES: O=[N+]([O-])c1ccc2c(c1Oc1ccc(-n3cc(F)cn3)cc1)CCC2OP(=O)(N1CC1)N1CC1 (centres unmarked) [Example 422]
IC50 ([1]; H460 cells): < 10 nM | IC50 [2]: 821 nM

SMILES: O=[N+]([O-])c1ccc2c(c1Oc1ccc(-n3cccn3)cc1)CCC2OP(=O)(N1CC1)N1CC1 (centres unmarked) [Example 424]
IC50 ([1]; H460 cells): < 10 nM | IC50 [2]: 779 nM

SMILES: Cc1cnn(-c2ccc(Oc3c([N+](=O)[O-])ccc4c3CCC4OP(=O)(N3CC3)N3CC3)cc2)c1 (centres unmarked) [Example 425]
IC50 ([1]; H460 cells): < 10 nM | IC50 [2]: 5270 nM

SMILES: CC1(C)CN(c2ccc(Oc3c([N+](=O)[O-])ccc4c3CCC4OP(=O)(N3CC3)N3CC3)cc2)C(=O)O1 (centres unmarked) [Example 426]
IC50 ([1]; H460 cells): < 10 nM | IC50 [2]: 638 nM

SMILES: O=C1CCCN1c1cc(Oc2c([N+](=O)[O-])ccc3c2CCC3OP(=O)(N2CC2)N2CC2)ccc1F (centres unmarked) [Example 427]
IC50 ([1]; H460 cells): < 10 nM | IC50 [2]: 756 nM

SMILES: O=C1CCCN1c1cc(Oc2c([N+](=O)[O-])ccc3c2CC[C@H]3OP(=O)(N2CC2)N2CC2)ccc1F [Example 428]
IC50 ([1]; H460 cells): < 10 nM | IC50 [2]: 1200 nM

SMILES: Cc1cnn(-c2cccc(Oc3c([N+](=O)[O-])ccc4c3CC[C@@H]4OP(=O)(N3CC3)N3CC3)c2)c1 [Example 429]
IC50 [1, 4]: < 10 nM | IC50 [2]: 1960 nM

SMILES: Cc1ccn(-c2cccc(Oc3c([N+](=O)[O-])ccc4c3CC[C@H]4OP(=O)(N3CC3)N3CC3)c2)n1 [Example 430]
IC50 [1, 4]: < 10 nM | IC50 [2]: 4860 nM

SMILES: O=[N+]([O-])c1ccc2c(c1Oc1ccc(F)c(OCC(F)(F)F)c1)CC[C@H]2OP(=O)(N1CC1)N1CC1 [Example 431]
IC50 [1, 4]: < 10 nM | IC50 [2]: 238 nM

SMILES: O=[N+]([O-])c1ccc2c(c1Oc1cccc(-n3cc(C(F)F)cn3)c1)CC[C@@H]2OP(=O)(N1CC1)N1CC1 [Example 432]
IC50 [1, 4]: < 10 nM | IC50 [2]: 4170 nM

SMILES: Cc1ccnn1-c1cc(Oc2c([N+](=O)[O-])ccc3c2CC[C@@H]3OP(=O)(N2CC2)N2CC2)ccc1F [Example 433]
IC50 [1, 4]: < 10 nM | IC50 [2]: 2590 nM

SMILES: Cc1nncn1-c1cccc(Oc2c([N+](=O)[O-])ccc3c2CC[C@@H]3OP(=O)(N2CC2)N2CC2)c1 [Example 434]
IC50 [1, 4]: < 10 nM | IC50 [2]: 1140 nM

SMILES: O=[N+]([O-])c1ccc2c(c1Oc1cccc(-n3cncn3)c1)CC[C@@H]2OP(=O)(N1CC1)N1CC1 [Example 435]
IC50 [1, 4]: < 10 nM | IC50 [2]: 482 nM

SMILES: O=[N+]([O-])c1ccc2c(c1Oc1cccc(-n3ncnn3)c1)CC[C@@H]2OP(=O)(N1CC1)N1CC1 [Example 436]
IC50 [1, 4]: < 10 nM | IC50 [2]: 138 nM

SMILES: O=[N+]([O-])c1ccc2c(c1Oc1cccc(-n3ncnn3)c1)CC[C@H]2OP(=O)(N1CC1)N1CC1 [Example 437]
IC50 [1, 4]: < 10 nM | IC50 [2]: 235 nM

SMILES: O=[N+]([O-])c1ccc2c(c1Oc1ccc(F)c(-n3cncn3)c1)CC[C@@H]2OP(=O)(N1CC1)N1CC1 [Example 438]
IC50 [1, 4]: < 10 nM | IC50 [2]: 416 nM

SMILES: Cc1ccn(-c2cc(Oc3c([N+](=O)[O-])ccc4c3CC[C@@H]4OP(=O)(N3CC3)N3CC3)ccc2F)n1 [Example 439]
IC50 [1, 4]: < 10 nM | IC50 [2]: 2090 nM

SMILES: Cc1ncn(-c2cc(Oc3c([N+](=O)[O-])ccc4c3CC[C@@H]4OP(=O)(N3CC3)N3CC3)ccc2F)n1 [Example 440]
IC50 [1, 4]: < 10 nM | IC50 [2]: 897 nM

SMILES: O=[N+]([O-])c1ccc2c(c1Oc1ccc(F)c(-n3ncnn3)c1)CC[C@@H]2OP(=O)(N1CC1)N1CC1 [Example 441]
IC50 [1, 4]: < 10 nM | IC50 [2]: 158 nM

SMILES: O=[N+]([O-])c1ccc2c(c1Oc1ccc(F)c(-n3ccc(F)n3)c1)CC[C@@H]2OP(=O)(N1CC1)N1CC1 [Example 442]
IC50 [1, 4]: < 10 nM | IC50 [2]: 667 nM

SMILES: O=[N+]([O-])c1ccc2c(c1Oc1ccc(F)c(-n3ccc(F)n3)c1)CC[C@H]2OP(=O)(N1CC1)N1CC1 [Example 443]
IC50 [1, 4]: < 10 nM | IC50 [2]: 571 nM

SMILES: O=[N+]([O-])c1ccc2c(c1Oc1cccc(-n3ccc(F)n3)c1)CC[C@@H]2OP(=O)(N1CC1)N1CC1 [Example 444]
IC50 [1, 4]: < 10 nM | IC50 [2]: 192 nM

SMILES: O=[N+]([O-])c1ccc2c(c1Oc1cccc(-n3ccc(F)n3)c1)CC[C@H]2OP(=O)(N1CC1)N1CC1 [Example 445]
IC50 [1, 4]: < 10 nM | IC50 [2]: 357 nM

SMILES: O=[N+]([O-])c1ccc2c(c1Oc1cc(O)cc(OCC3CC3)c1)CC[C@@H]2OP(=O)(N1CC1)N1CC1 [Example 446, (S)-4-(3-(cyclopropylmethoxy)-5-hydroxyphenoxy)-5-nitro-2,3-dihydro-1H-inden-1-yl di(aziridin-1-yl)phosphinate]
IC50 [1, 4]: < 10 nM | IC50 [2]: 1210 nM

SMILES: COc1cccc(Oc2c([N+](=O)[O-])ccc3c2CC[C@H]3OP(=O)(N2CC2)N2CC2)c1 [Example 448]
IC50 ([1]; H460 cells): < 10 nM | IC50 [2]: 647 nM

SMILES: O=[N+]([O-])c1ccc2c(c1Oc1cccc(OC(F)(F)F)c1)CC[C@@H]2OP(=O)(N1CC1)N1CC1 [Example 449]
IC50 ([1]; H460 cells): < 10 nM | IC50 [2]: 570 nM

SMILES: O=[N+]([O-])c1ccc2c(c1Oc1cccc(OC(F)(F)F)c1)CC[C@H]2OP(=O)(N1CC1)N1CC1 [Example 450]
IC50 ([1]; H460 cells): < 10 nM | IC50 [2]: 1060 nM

SMILES: CC(C)Oc1cccc(Oc2c([N+](=O)[O-])ccc3c2CC[C@@H]3OP(=O)(N2CC2)N2CC2)c1 [Example 452]
IC50 ([1]; H460 cells): < 10 nM | IC50 [2]: 2240 nM

SMILES: CC(C)Oc1cccc(Oc2c([N+](=O)[O-])ccc3c2CC[C@H]3OP(=O)(N2CC2)N2CC2)c1 [Example 453]
IC50 ([1]; H460 cells): < 10 nM | IC50 [2]: 819 nM

SMILES: Cn1cc(Oc2cccc(Oc3c([N+](=O)[O-])ccc4c3CC[C@H]4OP(=O)(N3CC3)N3CC3)c2)cn1 [Example 455]
IC50 ([1]; H460 cells): < 10 nM | IC50 [2]: 1660 nM

SMILES: O=[N+]([O-])c1ccc2c(c1Oc1cccc(S(=O)(=O)C3CC3)c1)CC[C@H]2OP(=O)(N1CC1)N1CC1 [Example 456]
IC50 ([1]; H460 cells): < 10 nM | IC50 [2]: 940 nM

SMILES: O=[N+]([O-])c1ccc2c(c1Oc1cccc(OC(F)F)c1)CC[C@@H]2OP(=O)(N1CC1)N1CC1 [Example 457]
IC50 ([1]; H460 cells): < 10 nM | IC50 [2]: 768 nM

SMILES: O=[N+]([O-])c1ccc2c(c1Oc1cccc(OC(F)F)c1)CC[C@H]2OP(=O)(N1CC1)N1CC1 [Example 458]
IC50 ([1]; H460 cells): < 10 nM | IC50 [2]: 506 nM

SMILES: COc1cncc(Oc2c([N+](=O)[O-])ccc3c2CC[C@H]3OP(=O)(N2CC2)N2CC2)c1 [Example 462]
IC50 ([1]; H460 cells): < 10 nM | IC50 [2]: 917 nM

SMILES: O=[N+]([O-])c1ccc2c(c1Oc1cccc(OC3CCC3)c1)CC[C@@H]2OP(=O)(N1CC1)N1CC1 [Example 463]
IC50 ([1]; H460 cells): < 10 nM | IC50 [2]: 478 nM

SMILES: O=[N+]([O-])c1ccc2c(c1Oc1cccc(OC3CCC3)c1)CC[C@H]2OP(=O)(N1CC1)N1CC1 [Example 464]
IC50 ([1]; H460 cells): < 10 nM | IC50 [2]: 1390 nM

SMILES: CSc1ccc(Oc2c([N+](=O)[O-])ccc3c2CC[C@@H]3OP(=O)(N2CC2)N2CC2)cc1 [Example 466]
IC50 ([1]; H460 cells): < 10 nM | IC50 [2]: 975 nM

SMILES: O=[N+]([O-])c1ccc2c(c1Oc1cccc(OC3CC3)c1)CC[C@H]2OP(=O)(N1CC1)N1CC1 [Example 467]
IC50 ([1]; H460 cells): < 10 nM | IC50 [2]: 4160 nM

SMILES: O=[N+]([O-])c1ccc2c(c1Oc1cccc(OC3COC3)c1)CC[C@H]2OP(=O)(N1CC1)N1CC1 [Example 468]
IC50 ([1]; H460 cells): < 10 nM | IC50 [2]: 660 nM
